As usually defined, the EC50 is the midpoint of the concentration-response curve.

The values below come from patent US20250195511A1, “INDAZOLE DERIVATIVES USEFUL AS INHIBITORS OF NOD-LIKE RECEPTOR PROTEIN 3” (Merck Sharp & Dohme LLC, priority 2023, published 2025).

The first test has as its system NLRP3 inflammasome. The test is described as follows: NLRP3 inflammasome activation: ASC-SPECK formation in gramicidin-stimulated THP-1 cells. Type of test: cell-based. The settings on record: Homo sapiens, THP-1, inhibition of ASC SPECK formation; PMA-treated human monocytic THP-1 cells, compound 1 h before 12.5 μg/ml gramicidin, 3-hour treatment. The method in brief: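 Undifferentiated human THP-1 cells primed overnight with 10 ng/ml PMA, then given compounds 1 h before 12.5 μg/ml gramicidin for 3 h at 37° C in RPMI with 0.01% BSA. Fixed cells immunostained for ASC with DRAQ5 nuclear counterstain; DRAQ5-positive cells with ASC specks counted by high-content imaging; EC50 from curve fitting.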
Turning to `Cc1cc(C(F)(F)F)cc(O)c1-c1cnc2cn(C34CC(C3)S(=O)(=O)C4)nc2n1` [Example 2, 4-(6-(2-hydroxy-6-methyl-4-(trifluoromethyl)phenyl)-2H-pyrazolo[3,4-b]pyrazin-2-yl)-2-thiabicyclo[2.1.1]hexane 2,2-dioxide], the EC50 is 50 nM.
Same read-out and setting: to `Cc1cc(C(F)(F)F)cc(O)c1-c1cnc2cn([C@H]3[C@@H]4COC[C@@H]43)nc2n1` [Example 10, 2-(2-((1R,5S,6R)-3-oxabicyclo[3.1.0]hexan-6-yl)-2H-pyrazolo[3,4-b]pyrazin-6-yl)-3-methyl-5-(trifluoromethyl)phenol] belongs 34 nM; to `CCOCOc1cc(C(F)(F)F)cc(C)c1-c1cnc2c([C@@H](C)O)n(C[C@H]3CC(=O)N(C4CC4)C3)nc2n1` (single isomer, unassigned) [Example 114, (S or R)-1-cyclopropyl-4-((6-(2-(ethoxymethoxy)-6-methyl-4-(trifluoromethyl)phenyl)-3-((R or S)-1-hydroxyethyl)-2H-pyrazolo[3,4-b]pyrazin-2-yl)methyl)pyrrolidin-2-one], 57 nM.
On to `Cc1cc(C(F)(F)F)cc(O)c1-c1cnc2cn([C@H]3COCC[C@@H]3O)nc2n1` [Example 35, (3S,4S)-3-[6-[2-hydroxy-6-methyl-4-(trifluoromethyl)phenyl]pyrazolo[3,4-b]pyrazin-2-yl]tetrahydropyran-4-ol], for which the EC50 is 37 nM.
On the same count and under the same terms, in the case of `Cc1cc(C(F)(F)F)cc(O)c1-c1cnc2cn(CC(C)(C)C#N)nc2n1` [Example 12, 3-(6-(2-hydroxy-6-methyl-4-(trifluoromethyl)phenyl)-2H-pyrazolo[3,4-b]pyrazin-2-yl)-2,2-dimethylpropanenitrile] it was 658 nM.
On the same count and under the same terms, to `Cc1cc(C(F)(F)F)cc(O)c1-c1cnc2c(C)n(C3CCC(=O)N(C)C3)nc2n1` (single isomer, unassigned) [Example 106, (S or R)-5-(6-(2-hydroxy-6-methyl-4-(trifluoromethyl)phenyl)-3-methyl-2H-pyrazolo[3,4-b]pyrazin-2-yl)-1-methylpiperidin-2-one] belongs 191 nM.
With `Cc1cc(C(F)(F)F)cc(O)c1-c1cnc2cn(C3CCP(C)(=O)CC3)nc2n1` (single isomer, unassigned) [Example 82, (1R,4R or 1S,4S)-4-(6-(2-hydroxy-6-methyl-4-(trifluoromethyl)phenyl)-2H-pyrazolo[3,4-b]pyrazin-2-yl)-1-methylphosphinane 1-oxide], the EC50 amounted to 189 nM.
The same measure, in the same setting: in the case of `CCOCOc1cc(C(F)(F)F)cc(C)c1-c1cnc2c([C@H](C)O)n(C[C@H]3CC(=O)N(C4CC4)C3)nc2n1` (single isomer, unassigned) [Example 113, (S or R)-1-cyclopropyl-4-((6-(2-(ethoxymethoxy)-6-methyl-4-(trifluoromethyl)phenyl)-3-((S or R)-1-hydroxyethyl)-2H-pyrazolo[3,4-b]pyrazin-2-yl)methyl)pyrrolidin-2-one] it was 649 nM.

Staying with this test, now noted: inhibition of ASC SPECK formation; PMA-treated human monocytic THP-1 cells, compound 1 h before 12.5 μg/ml gramicidin, 3-hour treatment.
Consider `Cc1cc(C(F)(F)F)cc(O)c1-c1cnc2cn(C3C4CS(=O)(=O)CC43)nc2n1` (single isomer, unassigned) [Example 53, (1R,5S,6S or 1R,5S,6R)-6-(6-(2-hydroxy-6-methyl-4-(trifluoromethyl)phenyl)-2H-pyrazolo[3,4-b]pyrazin-2-yl)-3-thiabicyclo[3.1.0]hexane 3,3-dioxide], for which the concentration giving a half-maximal response (EC50) turned out to be 981 nM.
Still for that read-out and setting: in the case of `Cc1cc(C(F)(F)F)cc(O)c1-c1cnc2cn([C@H]3CCOC[C@@H]3C)nc2n1` (single isomer, unassigned) [Example 88, 3-methyl-2-(2-((3S,4R or 3R,4S)-3-methyltetrahydro-2H-pyran-4-yl)-2H-pyrazolo[3,4-b]pyrazin-6-yl)-5-(trifluoromethyl)phenol] it was 291 nM; in that of `CCN1CC(Cn2cc3ncc(-c4c(C)cc(C(F)(F)F)cc4O)nc3n2)CC1=O` (single isomer, unassigned) [Example 67, (S or R)-1-ethyl-4-((6-(2-hydroxy-6-methyl-4-(trifluoromethyl)phenyl)-2H-pyrazolo[3,4-b]pyrazin-2-yl)methyl)pyrrolidin-2-one], 7 nM.
The same measure, in the same setting: to `Cc1cc(C(F)(F)F)cc(O)c1-c1cnc2cn(C3(C)CCOC3)nc2n1` (single isomer, unassigned) [Example 79, (R or S)-3-methyl-2-(2-(3-methyltetrahydrofuran-3-yl)-2H-pyrazolo[3,4-b]pyrazin-6-yl)-5-(trifluoromethyl)phenol] belongs 173 nM.
As for `Cc1cc(C(F)(F)F)cc(O)c1-c1cnc2cn([C@H]3CCO[C@@H](C)C3)nc2n1` (single isomer, unassigned) [Example 93, 3-methyl-2-(2-((2S,4S or 2R,4R)-2-methyltetrahydro-2H-pyran-4-yl)-2H-pyrazolo[3,4-b]pyrazin-6-yl)-5-(trifluoromethyl)phenol], the EC50 stood at 332 nM.
On the same count and under the same terms, in the case of `Cc1cc(C(F)(F)F)cc(O)c1-c1cnc2cn(C3CCc4nnn(C)c4C3)nc2n1` (single isomer, unassigned) [Example 68, (R or S)-3-methyl-2-(2-(1-methyl-4,5,6,7-tetrahydro-1H-benzo[d][1,2,3]triazol-6-yl)-2H-pyrazolo[3,4-b]pyrazin-6-yl)-5-(trifluoromethyl)phenol] it was 40 nM; in that of `Cc1cc(C(F)(F)F)cc(O)c1-c1cnc2cn(C3CCc4nnn(C)c4C3)nc2n1` (single isomer, unassigned) [Example 69, (S or R)-3-methyl-2-(2-(1-methyl-4,5,6,7-tetrahydro-1H-benzo[d][1,2,3]triazol-6-yl)-2H-pyrazolo[3,4-b]pyrazin-6-yl)-5-(trifluoromethyl)phenol], 15 nM; in that of `CCN1CC(n2cc3ncc(-c4c(C)cc(C(F)(F)F)cc4O)nc3n2)CCC1=O` (single isomer, unassigned) [Example 65, (S or R)-1-ethyl-5-(6-(2-hydroxy-6-methyl-4-(trifluoromethyl)phenyl)-2H-pyrazolo[3,4-b]pyrazin-2-yl)piperidin-2-one], 79 nM.
`Cc1cc(C(F)(F)F)cc(O)c1-c1cnc2cn(C3(C)CC(F)C3)nc2n1` (single isomer, unassigned) [Example 74, 2-(2-((1R,3R or 1S,3S)-3-fluoro-1-methylcyclobutyl)-2H-pyrazolo[3,4-b]pyrazin-6-yl)-3-methyl-5-(trifluoromethyl)phenol]: the EC50 stood at 66 nM.
In the case of `Cc1cc(C(F)(F)F)cc(O)c1-c1cnc2cn(C3CCc4nnc(C(F)(F)F)n4C3)nc2n1` (single isomer, unassigned) [Example 70, (R or S)-3-methyl-5-(trifluoromethyl)-2-(2-(3-(trifluoromethyl)-5,6,7,8-tetrahydro-[1,2,4]triazolo[4,3-a]pyridin-6-yl)-2H-pyrazolo[3,4-b]pyrazin-6-yl)phenol], the 50% effective concentration (EC50) turned out to be 12 nM.
As to `Cc1cc(C(F)(F)F)cc(O)c1-c1cnc2cn(C3C4CS(=O)(=O)CC43)nc2n1` (single isomer, unassigned) [Example 54, (1R,5S,6R or 1R,5S,6S)-6-(6-(2-hydroxy-6-methyl-4-(trifluoromethyl)phenyl)-2H-pyrazolo[3,4-b]pyrazin-2-yl)-3-thiabicyclo[3.1.0]hexane 3,3-dioxide], the half-maximal effective concentration (EC50) worked out at 98 nM.
Same read-out and setting: to `Cc1cc(C(F)(F)F)cc(O)c1-c1cnc2cn([C@H]3CCO[C@H](C)C3)nc2n1` (single isomer, unassigned) [Example 89, 3-methyl-2-(2-((2R,4S or 2S,4R)-2-methyltetrahydro-2H-pyran-4-yl)-2H-pyrazolo[3,4-b]pyrazin-6-yl)-5-(trifluoromethyl)phenol] belongs 292 nM; to `Cc1cc(C(F)(F)F)cc(O)c1-c1cnc2c(C)n(C3CCC(=O)NC3)nc2n1` (single isomer, unassigned) [Example 108, (R or S)-5-(6-(2-hydroxy-6-methyl-4-(trifluoromethyl)phenyl)-3-methyl-2H-pyrazolo[3,4-b]pyrazin-2-yl)piperidin-2-one], 66 nM.
On the same count and under the same terms, to `Cc1cc(C(F)(F)F)cc(O)c1-c1cnc2cn(C34CC3COC4(C)C)nc2n1` (single isomer, unassigned) [Example 77, 2-(2-((1S,5S or 1R,5R)-2,2-dimethyl-3-oxabicyclo[3.1.0]hexan-1-yl)-2H-pyrazolo[3,4-b]pyrazin-6-yl)-3-methyl-5-(trifluoromethyl)phenol] belongs 445 nM; to `Cc1cc(C(F)(F)F)cc(O)c1-c1cnc2cn(C3CCOCC34CC4)nc2n1` (single isomer, unassigned) [Example 100, (S or R)-2-(2-(5-oxaspiro[2.5]octan-8-yl)-2H-pyrazolo[3,4-b]pyrazin-6-yl)-3-methyl-5-(trifluoromethyl)phenol], 169 nM.
With `Cc1cc(C(F)(F)F)cc(O)c1-c1cnc2cn(C34CCOCC3C4)nc2n1` (single isomer, unassigned) [Example 92, 2-(2-((1S,6R or 1R,6S)-3-oxabicyclo[4.1.0]heptan-6-yl)-2H-pyrazolo[3,4-b]pyrazin-6-yl)-3-methyl-5-(trifluoromethyl)phenol], the EC50 worked out at 132 nM.
Regarding `CCc1nnc2n1CC(n1cc3ncc(-c4c(C)cc(C(F)(F)F)cc4O)nc3n1)CC2` (single isomer, unassigned) [Example 72, (R or S)-2-(2-(3-ethyl-5,6,7,8-tetrahydro-[1,2,4]triazolo[4,3-a]pyridin-6-yl)-2H-pyrazolo[3,4-b]pyrazin-6-yl)-3-methyl-5-(trifluoromethyl)phenol], the EC50 came out at 20 nM.
For the compound `Cc1cc(C(F)(F)F)cc(O)c1-c1cnc2cn([C@H]3CCO[C@H](C)C3)nc2n1` (single isomer, unassigned) [Example 90, 3-methyl-2-(2-((2S,4R or 2R,4S)-2-methyltetrahydro-2H-pyran-4-yl)-2H-pyrazolo[3,4-b]pyrazin-6-yl)-5-(trifluoromethyl)phenol], the EC50 came out at 101 nM.
